Measurements: patent publication US20230302083A1, “HIGHLY-NETWORKED C[…] COMPOSITION” (priority 2020, published 2023)

Key:
[1] = biological target: T1, HLA-A*0301 (Homo sapiens, UniProt P04439); experiment: HLA class I-peptide stability assay in TAP-deficient HLA-A*0301 mono-allelic cells; format: cell-based
T1 construct: expressed in transfected cells; host or cells: TAP-deficient (CRISPR/Cas9) HLA-A*0301 mono-allelic 721.221 human B cells

[2] = system: HLA class I alleles; format: cell-based, human

KGIYQTSNFR [A3 COVID 15]
HLA-A*0301 stabilization [1]: HLA stabilizing

MIAQYTSAL [B7 COVID 16]
stabilization of HLA class I alleles [2]: stabilized a number of HLA class I alleles

NPLLYDANYFL [B81 COVID 14]
50% Experimental Binder [2]: YES

RVIHFGAGSDK [A3 COVID 3]
HLA-A*0301 stabilization [1]: HLA stabilizing

YQDVNCTEV [B39 COVID 11]
50% Experimental Binder [2]: YES
